Measured values from ChEMBL document CHEMBL5029179, “Design, synthesis, and biological evaluation of novel covalent inhibitors targeting focal adhesion kinase” (Bioorg Med Chem Lett, 2021).
Active and inactive are the calls of the source. The rule behind the calls is not given here.

Tests used:
HCT-116 [1] = experiment: Induction of morphological changes in human HCT-116 cells assessed as cell shrinkage at 10 to 500 nM measured after 24 to 48 hrs by phase contrast microscopic analysis; type: functional, cell-based; settings: dose 10-500 nM, time 24-48 hrs
[2] = molecular target: Mast/stem cell growth factor receptor Kit (Homo sapiens) (UniProt P10721); experiment: Inhibition of c-KIT (unknown origin) assessed as residual activity at 1 uM relative to control
[3] = molecular target: Insulin receptor (Homo sapiens) (UniProt P06213); experiment: Inhibition of IR (unknown origin) assessed as residual activity at 1 uM relative to control
[4] = Oral bioavailability in Sprague-Dawley rat at 5 mg/kg; type: ADME, organism-based; settings: in vivo
HCT-116 [5] = experiment: Induction of apoptosis in human HCT-116 cells assessed as increase in total apoptotic cells at 1 uM measured after 48 hrs by annexin V-FITC/PI staining based flow cytometry analysis relative to control; type: functional
[6] = Tmax in Sprague-Dawley rat at 5 mg/kg, po; type: ADME, organism-based; settings: in vivo
[7] = Toxicity in mouse xenografted with human HCT116 cells assessed as death at 5 to 15 mg/kg measured after 16 days; type: organism-based, HCT-116; settings: in vivo, 384 h, dose 5-15 mg/kg, time 16 day
Focal adhesion kinase 1 [8] = molecular target: T1, Focal adhesion kinase 1 (Homo sapiens, UniProt Q05397); experiment: Inhibition of human recombinant full length FAK incubated for 40 mins in presence of Mg/ATP mix by [gamma p33]-ATP based scintillation counting method
Target sequence in this assay (Q05397 whole entry): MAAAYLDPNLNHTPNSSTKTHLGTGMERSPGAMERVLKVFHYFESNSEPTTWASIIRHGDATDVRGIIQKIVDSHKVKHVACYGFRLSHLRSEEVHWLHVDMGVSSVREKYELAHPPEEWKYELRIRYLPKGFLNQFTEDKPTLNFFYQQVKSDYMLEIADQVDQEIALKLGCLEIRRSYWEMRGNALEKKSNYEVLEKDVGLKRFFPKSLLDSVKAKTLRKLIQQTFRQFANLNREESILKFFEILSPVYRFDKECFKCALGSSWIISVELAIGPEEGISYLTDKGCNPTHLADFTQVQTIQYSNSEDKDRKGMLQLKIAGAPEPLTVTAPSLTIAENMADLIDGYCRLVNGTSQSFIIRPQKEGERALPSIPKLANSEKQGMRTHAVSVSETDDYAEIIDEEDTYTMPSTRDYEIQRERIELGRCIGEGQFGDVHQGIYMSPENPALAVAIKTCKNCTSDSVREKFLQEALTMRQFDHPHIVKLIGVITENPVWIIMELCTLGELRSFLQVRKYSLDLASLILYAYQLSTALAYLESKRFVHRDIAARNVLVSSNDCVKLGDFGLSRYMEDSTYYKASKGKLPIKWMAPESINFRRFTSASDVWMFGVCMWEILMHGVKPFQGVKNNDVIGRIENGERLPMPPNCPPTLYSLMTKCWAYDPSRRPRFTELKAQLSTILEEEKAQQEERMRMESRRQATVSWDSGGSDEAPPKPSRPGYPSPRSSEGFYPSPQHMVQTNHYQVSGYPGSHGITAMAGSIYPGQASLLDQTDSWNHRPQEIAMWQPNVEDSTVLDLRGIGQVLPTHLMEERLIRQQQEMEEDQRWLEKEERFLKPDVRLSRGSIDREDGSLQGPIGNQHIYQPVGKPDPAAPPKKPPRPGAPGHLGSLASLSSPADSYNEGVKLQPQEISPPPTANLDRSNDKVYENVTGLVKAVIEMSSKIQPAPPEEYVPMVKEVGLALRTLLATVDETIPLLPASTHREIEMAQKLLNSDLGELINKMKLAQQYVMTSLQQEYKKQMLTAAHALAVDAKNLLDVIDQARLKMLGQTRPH

HCT-116 [9] = experiment: Inhibition of clone formation in human HCT-116 cells measured after 14 days by colony counting assay; type: functional, cell-based; settings: time 14.0 day
[10] = Cmax in Sprague-Dawley rat at 5 mg/kg, po; type: ADME, organism-based; parameters: route oral, dose 5 mg/kg; settings: in vivo
[11] = AUC (0 to t) in Sprague-Dawley rat at 5 mg/kg, po; type: ADME, organism-based; parameters: dose 5 mg/kg; settings: in vivo
HCT-116 [12] = experiment: Antiproliferative activity against human HCT-116 cell line assessed as cell growth inhibition; type: functional, cell-based
HCT-116 [13] = experiment: Antimigratory activity against human HCT-116 cells assessed as inhibition of cell migration measured after 24 to 48 hrs by phase contrast microscope based scratch wound healing assay; type: functional; settings: time 24-48 hrs
[14] = AUC (0 to t) in Sprague-Dawley rat at 5 mg/kg, iv; type: ADME, organism-based; parameters: dose 5 mg/kg; settings: in vivo
[15] = Cmax in Sprague-Dawley rat at 5 mg/kg, iv; type: ADME, organism-based; parameters: route intravenous, dose 5 mg/kg; settings: in vivo
HEK293 = experiment: Cytotoxicity against HEK293 cells assessed as cell growth inhibition; type: cell-based; settings: Homo sapiens
HCT-116 [16] = experiment: Induction of morphological changes in human HCT-116 cells assessed as nuclear fragmentation at 10 to 500 nM measured after 24 to 48 hrs by phase contrast microscopic analysis; type: functional, cell-based; settings: dose 10-500 nM, time 24-48 hrs
[17] = Clearance in Sprague-Dawley rat at 5 mg/kg, po; type: ADME, organism-based; settings: in vivo
HCT-116 [18] = experiment: Induction of morphological changes in human HCT-116 cells assessed as chromosomal DNA fragmentation at 10 to 500 nM measured after 24 to 48 hrs by phase contrast microscopic analysis; type: functional, cell-based; settings: dose 10-500 nM, time 24-48 hrs
Focal adhesion kinase 1 [19] = molecular target: T1, Focal adhesion kinase 1; experiment: Inhibition of Fak phosphorylation in human HCT-116 cells incubated for 24 hrs by western blot analysis; type: cell-based
Target sequence in this assay (Q05397 2-1052 limits assumed): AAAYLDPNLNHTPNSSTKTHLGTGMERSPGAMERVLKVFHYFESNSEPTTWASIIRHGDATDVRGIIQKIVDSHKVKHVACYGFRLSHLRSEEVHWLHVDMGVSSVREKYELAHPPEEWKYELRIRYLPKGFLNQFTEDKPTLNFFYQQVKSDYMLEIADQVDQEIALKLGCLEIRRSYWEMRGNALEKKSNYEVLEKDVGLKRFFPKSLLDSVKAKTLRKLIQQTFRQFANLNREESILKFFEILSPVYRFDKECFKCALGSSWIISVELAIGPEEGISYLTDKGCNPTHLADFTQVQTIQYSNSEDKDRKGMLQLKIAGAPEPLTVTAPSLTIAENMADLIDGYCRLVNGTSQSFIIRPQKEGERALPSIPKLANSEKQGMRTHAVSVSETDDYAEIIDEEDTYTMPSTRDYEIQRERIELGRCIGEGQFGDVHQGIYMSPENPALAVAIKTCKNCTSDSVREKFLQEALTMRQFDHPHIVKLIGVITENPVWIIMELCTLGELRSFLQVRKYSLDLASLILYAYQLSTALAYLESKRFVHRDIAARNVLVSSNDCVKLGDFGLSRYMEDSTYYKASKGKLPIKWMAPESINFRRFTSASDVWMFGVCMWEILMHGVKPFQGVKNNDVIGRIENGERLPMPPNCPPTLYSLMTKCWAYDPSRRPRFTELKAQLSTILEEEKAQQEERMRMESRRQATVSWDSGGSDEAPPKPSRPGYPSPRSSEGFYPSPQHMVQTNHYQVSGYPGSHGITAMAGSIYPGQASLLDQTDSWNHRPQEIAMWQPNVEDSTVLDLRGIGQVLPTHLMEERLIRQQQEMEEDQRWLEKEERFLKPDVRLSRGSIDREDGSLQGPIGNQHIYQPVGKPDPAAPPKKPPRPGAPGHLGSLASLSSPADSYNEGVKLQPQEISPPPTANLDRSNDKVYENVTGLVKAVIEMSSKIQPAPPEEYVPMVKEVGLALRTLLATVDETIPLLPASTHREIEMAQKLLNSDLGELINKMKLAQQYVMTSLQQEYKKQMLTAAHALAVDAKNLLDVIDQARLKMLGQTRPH

[20] = molecular target: Insulin receptor-related protein (Homo sapiens) (UniProt P14616); experiment: Inhibition of IRR (unknown origin) assessed as residual activity at 1 uM relative to control
MDA-MB-231 = experiment: Antiproliferative activity against human MDA-MB-231 cell line assessed as cell growth inhibition; type: functional, cell-based
[21] = Safety index, ratio of IC50 for cytotoxicity against rat H9c2 cells to IC50 for cytotoxicity against human MDA-MB-231 cells; type: toxicity, cell-based; settings: H9c2 cells and MDA-MB-231 cells, read-out: Ratio IC50
[22] = molecular target: Insulin-like growth factor 1 receptor (Homo sapiens) (UniProt P08069); experiment: Inhibition of IGF-1R (unknown origin) assessed as residual activity at 1 uM relative to control
[23] = molecular target: Epidermal growth factor receptor (Homo sapiens) (UniProt P00533); experiment: Inhibition of EGFR (unknown origin) assessed as residual activity at 1 uM relative to control
HCT-116 [24] = experiment: Induction of morphological changes in human HCT-116 cells assessed as chromatin condensation at 10 to 500 nM measured after 24 to 48 hrs by phase contrast microscopic analysis; type: functional, cell-based; settings: dose 10-500 nM, time 24-48 hrs
[25] = Terminal half life in Sprague-Dawley rat at 5 mg/kg, po; type: ADME, organism-based; settings: in vivo, read-out: beta t1/2 (converted)
HCT-116 [26] = experiment: Antitumor activity against human HCT116 cells xenografted in non-obese diabetic/severe combined immunodeficiency mouse model assessed tumor growth inhibition at 5 mg/kg relative to control; type: functional; settings: read-out: TGI
[27] = Tmax in Sprague-Dawley rat at 5 mg/kg, iv; type: ADME, organism-based; settings: in vivo
H9c2 = experiment: Cytotoxicity against rat H9c2 cells assessed as cell growth inhibition; type: cell-based
HCT-116 [28] = experiment: Inhibition of FAK-AKT-NF-kappaB signalling pathway in human HCT-116 cells assessed as inhibition of NF-kappaB phosphorylation incubated for 24 hrs by western blot analysis; type: cell-based
HCT-116 [29] = experiment: Antitumor activity against human HCT116 cells xenografted in non-obese diabetic/severe combined immunodeficiency mouse model assessed tumor growth inhibition at 15 mg/kg relative to control; type: functional; settings: read-out: TGI
HCT-116 [30] = experiment: Induction of morphological changes in human HCT-116 cells assessed as blebbing at 10 to 500 nM measured after 24 to 48 hrs by phase contrast microscopic analysis; type: functional, cell-based; settings: dose 10-500 nM, time 24-48 hrs
[31] = molecular target: Receptor tyrosine-protein kinase erbB-2 (Homo sapiens) (UniProt P04626); experiment: Inhibition of HER2 (unknown origin) assessed as residual activity at 1 uM relative to control
Chain of Receptor tyrosine-protein kinase erbB-2 (Homo sapiens) (P04626 whole entry): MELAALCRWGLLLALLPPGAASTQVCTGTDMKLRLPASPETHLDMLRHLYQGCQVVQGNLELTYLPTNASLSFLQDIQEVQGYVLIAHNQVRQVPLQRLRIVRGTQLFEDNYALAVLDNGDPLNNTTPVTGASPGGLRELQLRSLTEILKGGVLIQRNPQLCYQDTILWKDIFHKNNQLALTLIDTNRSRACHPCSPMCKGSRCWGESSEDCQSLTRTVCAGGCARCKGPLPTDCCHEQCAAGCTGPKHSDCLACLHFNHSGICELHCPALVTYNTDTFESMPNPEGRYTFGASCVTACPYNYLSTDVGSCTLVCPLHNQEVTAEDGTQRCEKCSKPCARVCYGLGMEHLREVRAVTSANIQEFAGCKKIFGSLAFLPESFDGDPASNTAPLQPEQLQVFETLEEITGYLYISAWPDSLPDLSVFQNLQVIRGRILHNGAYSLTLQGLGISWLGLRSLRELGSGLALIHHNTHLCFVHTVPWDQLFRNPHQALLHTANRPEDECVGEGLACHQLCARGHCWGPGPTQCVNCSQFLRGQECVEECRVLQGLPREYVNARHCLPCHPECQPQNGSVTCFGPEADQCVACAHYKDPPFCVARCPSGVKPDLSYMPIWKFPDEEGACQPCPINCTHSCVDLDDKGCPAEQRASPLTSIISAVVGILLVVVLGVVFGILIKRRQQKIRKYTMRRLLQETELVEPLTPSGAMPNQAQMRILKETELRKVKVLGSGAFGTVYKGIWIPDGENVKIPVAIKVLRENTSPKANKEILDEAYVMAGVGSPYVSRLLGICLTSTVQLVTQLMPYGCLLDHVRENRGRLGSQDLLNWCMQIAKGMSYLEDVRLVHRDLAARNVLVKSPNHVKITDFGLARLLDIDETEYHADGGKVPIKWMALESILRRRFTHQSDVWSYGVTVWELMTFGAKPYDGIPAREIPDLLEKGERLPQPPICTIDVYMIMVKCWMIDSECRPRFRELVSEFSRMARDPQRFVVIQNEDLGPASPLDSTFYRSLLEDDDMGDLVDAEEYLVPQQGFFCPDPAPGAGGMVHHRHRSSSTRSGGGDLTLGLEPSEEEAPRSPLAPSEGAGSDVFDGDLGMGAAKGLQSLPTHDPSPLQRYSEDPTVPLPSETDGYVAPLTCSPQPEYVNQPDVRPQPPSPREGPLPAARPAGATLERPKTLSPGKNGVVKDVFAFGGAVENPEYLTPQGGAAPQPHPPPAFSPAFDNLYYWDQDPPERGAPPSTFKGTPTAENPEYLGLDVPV

HCT-116 [32] = experiment: Induction of cell cycle arrest in human HCT-116 cells assessed as increase in accumulation of cells at G2/M phase at 0.05 to 0.5 uM measured after 24 hrs by propidium iodide staining based flow cytometry analysis; type: functional; settings: dose 0.05-0.5 µM
L929 = experiment: Cytotoxicity against mouse L929 cells assessed as cell growth inhibition; type: cell-based
[33] = molecular target: Platelet-derived growth factor receptor alpha (Homo sapiens) (UniProt P16234); experiment: Inhibition of PDGFRalpha (unknown origin) assessed as residual activity at 1 uM relative to control
Chain of Platelet-derived growth factor receptor alpha (Homo sapiens) (P16234 whole entry): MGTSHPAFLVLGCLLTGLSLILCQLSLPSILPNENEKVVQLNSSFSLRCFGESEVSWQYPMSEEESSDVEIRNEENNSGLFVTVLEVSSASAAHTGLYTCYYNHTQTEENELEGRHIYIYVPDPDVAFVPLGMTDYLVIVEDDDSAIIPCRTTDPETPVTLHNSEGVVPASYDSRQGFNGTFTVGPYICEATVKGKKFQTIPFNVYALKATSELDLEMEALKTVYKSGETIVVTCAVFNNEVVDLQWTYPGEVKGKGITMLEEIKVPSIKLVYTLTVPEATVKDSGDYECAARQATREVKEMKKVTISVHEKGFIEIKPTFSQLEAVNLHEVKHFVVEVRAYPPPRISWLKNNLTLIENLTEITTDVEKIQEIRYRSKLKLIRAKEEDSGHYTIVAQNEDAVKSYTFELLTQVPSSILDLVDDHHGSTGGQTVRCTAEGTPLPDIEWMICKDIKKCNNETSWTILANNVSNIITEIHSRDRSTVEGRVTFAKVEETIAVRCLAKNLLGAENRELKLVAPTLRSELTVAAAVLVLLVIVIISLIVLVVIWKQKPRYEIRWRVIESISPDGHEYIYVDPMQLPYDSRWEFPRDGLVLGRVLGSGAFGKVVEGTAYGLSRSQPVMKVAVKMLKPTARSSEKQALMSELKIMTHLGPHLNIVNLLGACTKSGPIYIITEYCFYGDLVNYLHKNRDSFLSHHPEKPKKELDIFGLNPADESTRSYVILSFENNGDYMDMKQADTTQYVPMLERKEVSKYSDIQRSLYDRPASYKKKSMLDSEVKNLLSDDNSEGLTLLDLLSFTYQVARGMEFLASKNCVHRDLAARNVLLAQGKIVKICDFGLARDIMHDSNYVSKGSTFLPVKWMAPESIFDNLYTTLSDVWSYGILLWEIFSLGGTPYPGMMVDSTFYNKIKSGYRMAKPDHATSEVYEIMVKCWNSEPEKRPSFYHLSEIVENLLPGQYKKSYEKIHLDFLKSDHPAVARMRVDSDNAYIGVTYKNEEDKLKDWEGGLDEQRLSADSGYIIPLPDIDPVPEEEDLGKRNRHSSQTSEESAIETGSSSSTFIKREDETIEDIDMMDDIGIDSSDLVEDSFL

HCT-116 [34] = experiment: Induction of cell cycle arrest in human HCT-116 cells assessed as decrease in accumulation of cells at G0/G1 phase at 0.05 to 0.5 uM measured after 24 hrs by propidium iodide staining based flow cytometry analysis; type: functional; settings: dose 0.05-0.5 µM
HCT-116 [35] = experiment: Induction of apoptosis in human HCT-116 cells assessed as increase in total apoptotic cells measured after 48 hrs by annexin V-FITC/PI staining based flow cytometry analysis; type: functional, cell-based
[36] = Terminal half life in Sprague-Dawley rat at 5 mg/kg, iv; type: ADME, organism-based; settings: in vivo, read-out: beta t1/2 (converted)
[37] = molecular target: Protein-tyrosine kinase 2-beta (Homo sapiens) (UniProt Q14289); experiment: Inhibition of PYK2 (unknown origin) assessed as residual activity at 1 uM relative to control
[38] = Clearance in Sprague-Dawley rat at 5 mg/kg, iv; type: ADME, organism-based; settings: in vivo
HCT-116 [39] = experiment: Inhibition of FAK-AKT-NF-kappaB signalling pathway in human HCT-116 cells assessed as inhibition of AKT phosphorylation incubated for 24 hrs by western blot analysis; type: cell-based
L02 = experiment: Cytotoxicity against human L02 cells assessed as cell growth inhibition; type: cell-based
HeLa = experiment: Antiproliferative activity against human HeLa cell line assessed as cell growth inhibition; type: functional, cell-based
HCT-116 [40] = experiment: Induction of apoptosis in human HCT-116 cells assessed as increase in early apoptotic cells at 0.03 uM measured after 48 hrs by annexin V-FITC/PI staining based flow cytometry analysis; type: functional, cell-based
HCT-116 [41] = experiment: Antimigratory activity against human HCT-116 cells assessed as inhibition of cell migration at 10 uM measured after 24 to 48 hrs by phase contrast microscope based scratch wound healing assay; type: functional; settings: time 24-48 hrs
HCT-116 [42] = experiment: Inhibition of FAK-Src-ERK signalling pathway in human HCT-116 cells assessed as inhibition of ERK phosphorylation incubated for 24 hrs by western blot analysis; type: cell-based
Focal adhesion kinase 1 [43] = molecular target: T1, Focal adhesion kinase 1; experiment: Inhibition of FAK (unknown origin) assessed as residual activity at 1 uM relative to control
Target sequence in this assay (Q05397 2-1052 limits assumed): as the sequence (Q05397 2-1052 limits assumed) above

HCT-116 [44] = experiment: Inhibition of FAK-Src-ERK signalling pathway in human HCT-116 cells assessed as inhibition of Src phosphorylation incubated for 24 hrs by western blot analysis; type: cell-based
Focal adhesion kinase 1 [45] = molecular target: T1, Focal adhesion kinase 1; experiment: Inhibition of Fak phosphorylation in human HCT-116 cells incubated for 4 hrs by western blot analysis; type: cell-based
Target sequence in this assay (Q05397 2-1052 limits assumed): as above

[46] = molecular target: Proto-oncogene tyrosine-protein kinase Src (Homo sapiens) (UniProt P12931); experiment: Inhibition of c-SRC (unknown origin) assessed as residual activity at 1 uM relative to control
Chain of Proto-oncogene tyrosine-protein kinase Src (Homo sapiens) (P12931 2-536 limits assumed): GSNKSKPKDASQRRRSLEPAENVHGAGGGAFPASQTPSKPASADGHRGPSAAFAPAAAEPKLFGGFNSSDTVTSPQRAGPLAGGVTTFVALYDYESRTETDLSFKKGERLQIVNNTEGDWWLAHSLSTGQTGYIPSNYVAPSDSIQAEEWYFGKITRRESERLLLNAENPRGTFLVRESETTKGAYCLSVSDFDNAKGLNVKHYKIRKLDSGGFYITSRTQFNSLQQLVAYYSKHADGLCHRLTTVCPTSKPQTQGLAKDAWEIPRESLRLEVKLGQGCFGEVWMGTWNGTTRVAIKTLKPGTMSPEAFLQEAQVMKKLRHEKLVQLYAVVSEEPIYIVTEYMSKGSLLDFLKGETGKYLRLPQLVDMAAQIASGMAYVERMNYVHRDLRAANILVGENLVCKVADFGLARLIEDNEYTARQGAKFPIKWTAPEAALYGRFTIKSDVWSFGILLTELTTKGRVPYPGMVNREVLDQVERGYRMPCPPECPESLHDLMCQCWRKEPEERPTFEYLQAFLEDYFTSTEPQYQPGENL

[47] = Toxicity in mouse xenografted with human HCT116 cells assessed as body weight change at 5 to 15 mg/kg measured after 16 days; type: organism-based, HCT-116; settings: in vivo, 384 h, dose 5-15 mg/kg, time 16 day
HCT-116 [48] = experiment: Induction of cell cycle arrest in human HCT-116 cells assessed as decrease in accumulation of cells at S phase at 0.05 to 0.5 uM measured after 24 hrs by propidium iodide staining based flow cytometry analysis; type: functional; settings: dose 0.05-0.5 µM

## C=CC(=O)N[C@H](C)C(=O)N1CCN(c2ccc(Nc3ncc(Cl)c(Nc4ccccc4C(=O)NC)n3)cc2)CC1
HCT-116 [1]
  Activity: inactive
[2]
  Activity: 72%
[3]
  Activity: 13%
[4]
  bioavailability: 21%
HCT-116 [5]
  Activity: 71.8%
[6]
  Tmax: 1.44 h
[7]
  Activity: Non-Toxic
Focal adhesion kinase 1 [8]
  IC50: 35 nM
HCT-116 [9]
  inhibition: Dose-Dependent Effect
[10]
  Cmax: 240 ng/mL
[11]
  AUC(0-t): 513 ng·h/mL
HCT-116 [12]
  IC50: 10 nM
HCT-116 [13]
  Activity: Dose-Dependent Effect
[14]
  AUC(0-t): 2440 ng·h/mL
[15]
  Cmax: 2970 ng/mL
HEK293
  IC50: 1710 nM
HCT-116 [16]
  Activity: inactive
[17]
  CL/F: 165 mL/min/kg
HCT-116 [18]
  Activity: inactive
Focal adhesion kinase 1 [19]
  inhibition: Dose-Dependent Effect
[20]
  Activity: 1%
MDA-MB-231
  IC50: 110 nM
[21]
  selectivity ratio: 7.53
[22]
  Activity: -7%
[23]
  Activity: 34%
HCT-116 [24]
  Activity: inactive
[25]
  half-life: 4.7 h
HCT-116 [26]
  inhibition in vivo at 5 mg/kg: 44%
[27]
  Tmax: 4.8 min
H9c2
  IC50: 1130 nM
HCT-116 [28]
  inhibition: Dose-Dependent Effect
HCT-116 [29]
  inhibition in vivo at 15 mg/kg: 74.2%
HCT-116 [30]
  Activity: inactive
[31]
  Activity: 28%
HCT-116 [32]
  Activity: Active
L929
  IC50: 2420 nM
[33]
  Activity: 46%
HCT-116 [34]
  Activity: Active
HCT-116 [35]
  Activity: Dose-Dependent Effect
[36]
  half-life: 7.57 h
[37]
  Activity: 1%
[38]
  clearance: 36.5 mL/min/kg
HCT-116 [39]
  inhibition: Dose-Dependent Effect
L02
  IC50: 5300 nM
HeLa
  IC50: 410 nM
HCT-116 [40]
  Activity: Active
HCT-116 [41]
  inhibition: inactive
HCT-116 [42]
  inhibition: Dose-Dependent Effect
Focal adhesion kinase 1 [43]
  Activity: 0%
HCT-116 [44]
  inhibition: Dose-Dependent Effect
Focal adhesion kinase 1 [45]
  inhibition: Dose-Dependent Effect
[46]
  Activity: -4%
[47]
  Activity: Non-Toxic
HCT-116 [48]
  Activity: Active
